The target in data set [1] is T1, PDE9A (Homo sapiens, UniProt O76083). Conditions: isolated enzyme, concentrations of up to 100 μM; cited from earlier work.
The target of another data set is T2, Murine PDE9A (Mus musculus, UniProt O70628).
T2 sequence (O70628 1-534): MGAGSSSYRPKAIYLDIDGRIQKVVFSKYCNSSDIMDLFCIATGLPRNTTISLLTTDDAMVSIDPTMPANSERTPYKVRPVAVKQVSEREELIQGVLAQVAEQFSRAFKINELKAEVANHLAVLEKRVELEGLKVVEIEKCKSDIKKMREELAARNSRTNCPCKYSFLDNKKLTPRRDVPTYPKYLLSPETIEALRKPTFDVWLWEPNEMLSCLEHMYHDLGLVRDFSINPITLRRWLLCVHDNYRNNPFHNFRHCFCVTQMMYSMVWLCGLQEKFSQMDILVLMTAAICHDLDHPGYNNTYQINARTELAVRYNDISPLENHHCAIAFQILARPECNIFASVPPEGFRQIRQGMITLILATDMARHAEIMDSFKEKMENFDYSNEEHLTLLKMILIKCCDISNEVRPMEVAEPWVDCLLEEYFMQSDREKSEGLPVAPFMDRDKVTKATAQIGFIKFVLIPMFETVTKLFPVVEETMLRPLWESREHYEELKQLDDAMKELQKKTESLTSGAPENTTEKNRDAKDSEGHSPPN
Conditions: concentrations below 200 μM; cited from earlier work.

In data set [2] the target is T1, PDE9A. The data set can be described thus: PDE inhibition: recombinant PDE9A, [3H]cGMP scintillation proximity assay. In kind it is biochemical. The arrangement: made in house; host or cells: Sf9 cells, pFASTBAC baculovirus expression system. Conditions: recombinant PDE9A expressed in Sf9 cells; read-out: IC50 (PDE9A-inhibiting effect). The text has this: Recombinant PDE1C (GenBank/EMBL Accession Number: NM_005020, Loughney et al. J. Biol. Chem. 1996 271, 796-806), PDE2A (GenBank/EMBL Accession Number: NM_002599, Rosman et al. Gene 1997 191, 89-95), PDE3B (GenBank/EMBL Accession Number: NM_000922, Miki et al. Genomics 1996, 36, 476-485), PDE4B (GenBank/EMBL Accession Number: NM_002600, Obernolte et al. Gene. 1993, 129, 239-247), PDE5A (GenBank/EMBL Accession Number: NM_001083, Loughney et al. Gene 1998, 216, 139-147), PDE7B (GenBank/EMBL Accession Number: NM_018945, Hetman et al. Proc. Natl. Acad. Sci. U.S.A. 2000, 97, 472-476), PDE8A (GenBank/EMBL Accession Number: AF—056490, Fisher et al. Biochem. Biophys. Res. Commun. 1998 246, 570-577), PDE9A (Fisher et al., J. Biol. Chem, 1998, 273 (25): 15559-15564), PDE10A (GenBank/EMBL Accession Number: NM_06661, Fujishige et al. J Biol Chem. 1999, 274, 18438-45), PDE11A (GenBank/EMBL Accession Number: NM_016953, Fawcett et al. Proc. Natl. Acad. Sci. 2000, 97, 3702-3707) were expressed in Sf9 cells with the aid of the pFASTBAC baculovirus expression system (GibcoBRL).
The test substances are dissolved in 100% DMSO and serially diluted to determine their in vitro effect on PDE 9A. Typically, serial dilutions from 200 μM to 1.6 μM are prepared (resulting final concentrations in the assay: 4 μM to 0.032 μM). 2 μL portions of the diluted substance solutions are introduced into the wells of microtiter plates (Isoplate; Wallac Inc., Atlanta, Ga.). Then 50 μL of a dilution of the PDE9A preparation described above are added. The dilution of the PDE9A preparation is chosen so that less than 70% of the substrate is converted during the subsequent incubation (typical dilution: 1:10000; dilution buffer: 50 mM Tris/HCl pH 7.5, 8.3 mM MgCl2, 1.7 mM EDTA, 0.2% BSA). The substrate, [8-^3H] guanosine 3′,5′-cyclic phosphate (1 μCi/μL; Amersham Pharmacia Biotech., Piscataway, N.J.) is diluted 1:2000 with assay buffer (50 mM Tris/HCl pH 7.5, 8.3 mM MgCl2, 1.7 mM EDTA) to a concentration of 0.0005 μCi/μL. The enzyme reaction is finally started by adding 50 μL (0.025 μCi) of the diluted substrate. The assay mixtures are incubated at room temperature for 60 min and the reaction is stopped by adding 25 μl of a PDE9A inhibitor (e.g. the inhibitor from preparation example 1, final concentration 10 μM) dissolved in assay buffer. Immediately thereafter, 25 μL of a suspension containing 18 mg/mL Yttrium Scintillation Proximity Beads (Amersham Pharmacia Biotech., Piscataway, N.J.) are added. The microtiter plates are sealed with a film and left to stand at room temperature for 60 min. The plates are then measured for 30 s per well in a Microbeta scintillation counter (Wallac Inc., Atlanta, Ga.). IC50 values are determined from the graphical plot of the substance concentration versus the percentage inhibition.
A general note: SPA uses beads or plates that emit light when radiolabelled molecules are held near them.

SMILES strings stand for the structures. pIC50: −log10 of the molar value.

Results on 18 molecules are retold here after patent US8158633B2, “Phenyl-substituted pyrazolopyrimidines” (Boehringer Ingelheim International GmbH, priority 2002, dated 2012).

What is called melting point is the temperature of the solid-liquid transition. One may read the pIC50 as the IC50 on a negative log10 scale, so that one unit is a factor of ten.

T1 sequence (O76083 whole entry): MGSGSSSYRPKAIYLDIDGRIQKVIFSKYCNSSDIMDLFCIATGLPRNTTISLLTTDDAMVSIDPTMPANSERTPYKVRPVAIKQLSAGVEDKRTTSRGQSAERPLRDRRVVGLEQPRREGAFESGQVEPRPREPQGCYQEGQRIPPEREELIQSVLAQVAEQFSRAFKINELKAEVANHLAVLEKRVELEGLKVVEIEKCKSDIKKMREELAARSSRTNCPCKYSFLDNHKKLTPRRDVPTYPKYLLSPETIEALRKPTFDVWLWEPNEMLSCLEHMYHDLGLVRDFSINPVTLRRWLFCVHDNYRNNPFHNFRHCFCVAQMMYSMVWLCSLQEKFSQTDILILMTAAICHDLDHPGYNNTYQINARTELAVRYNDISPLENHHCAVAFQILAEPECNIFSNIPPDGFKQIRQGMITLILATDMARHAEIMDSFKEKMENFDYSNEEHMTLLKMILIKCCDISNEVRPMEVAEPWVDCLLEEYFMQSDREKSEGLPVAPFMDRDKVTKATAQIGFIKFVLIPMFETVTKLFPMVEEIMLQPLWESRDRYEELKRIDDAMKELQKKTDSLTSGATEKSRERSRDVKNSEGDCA

In the case of `CCOC(=O)C1=C[C@]2(CC)CCCN3CCc4c(n1c1ccccc41)[C@@H]32` [vinpocetine], the “inhibition of human PDE9A” value at PDE9A [1] is reported as “no inhibition”. With `CC(=O)Nc1ccc(-c2c[nH]c(=O)cn2)cc1` [SKF94120], the “inhibition of human PDE9A” value on PDE9A [1] is recorded as “no inhibition”.

Turning to `CCC(CC)n1ncc2c(=O)[nH]c(Cc3cccc(C(F)(F)F)c3)nc21` [Example 11, 1-(1-Ethylpropyl)-6-[3-(trifluoromethyl)benzyl]-1,5-dihydro-4H-pyrazolo[3,4-d]-pyrimidin-4-one], the melting point is 120 °C. As for `CC(C)Cn1c(=O)n(C)c(=O)c2[nH]cnc21` [IBMX], at Murine PDE9A, the “inhibition of murine PDE9A” value is reported as “not inhibited”. The “inhibition of human PDE9A” value at PDE9A [1] is given as “no inhibition”.

Take `COc1ccc(C2CNC(=O)C2)cc1OC1CCCC1` (stereo not drawn) [rolipram]: the “inhibition of human PDE9A” value at PDE9A [1] is on record as “no inhibition”. In turn, `Cc1cccc(Cc2nc3c(cnn3C3CCCC3)c(=O)[nH]2)c1` [Example 8, 6-(3-Methylbenzyl)-1-cyclopentyl-1,5-dihydro-4H-pyrazolo[3,4-d]pyrimidin-4-one] had a melting point of 152 °C. With `CCC(CC)n1ncc2c(=O)[nH]c(Cc3cccc(C)c3)nc21` [Example 10, 6-(3-Methylbenzyl)-1-(1-ethylpropyl)-1,5-dihydro-4H-pyrazolo[3,4-d]pyrimidin-4-one], the melting point worked out at 128 °C. For the same molecule, the negative logarithm of the IC50 (pIC50) on PDE9A [2] was 7.19.

The molecule `O=c1[nH]c(Cc2cccc(Cl)c2Cl)nc2c1cnn2C1CCCC1` [Example 6, 6-(2,3-Dichlorobenzyl)-1-cyclopentyl-1,5-dihydro-4H-pyrazolo[3,4-d]pyrimidin-4-one] registered a melting point of 181 °C. The molecule `O=c1[nH]c(Cc2cccc(Br)c2)nc2c1cnn2C1CCCC1` [Example 3, 6-(3-Bromobenzyl)-1-cyclopentyl-1,5-dihydro-4H-pyrazolo[3,4-d]pyrimidin-4-one] came in with a melting point of 159 °C. The same measure, in the same setting: under `O=c1[nH]c(Cc2ccccc2OC(F)(F)F)nc2c1cnn2C1CCCC1` [Example 14, 1-Cyclopentyl-6-[2-(trifluoromethoxy)benzyl]-1,5-dihydro-4H-pyrazolo[3,4-d]-pyrimidin-4-one] stands 161 °C. Same read-out and setting: under `O=c1[nH]c(Cc2cc(Cl)cc(Cl)c2)nc2c1cnn2C1CCCC1` [Example 5, 6-(3,5-Dichlorobenzyl)-1-cyclopentyl-1,5-dihydro-4H-pyrazolo[3,4-d]pyrimidin-4-one] stands 177 °C. The molecule `O=c1[nH]c(Cc2ccccc2F)nc2c1cnn2C1CCCC1` [Example 2, 6-(2-Fluorobenzyl)-1-cyclopentyl-1,5-dihydro-4H-pyrazolo[3,4-d]pyrimidin-4-one] registered a melting point of 180 °C. Further, at PDE9A [2], the negative-log IC50 (pIC50) is 7.52.

On to `O=c1[nH]c(Cc2cccc(Cl)c2)nc2c1cnn2C1CCCC1` [Example 1, 6-(3-Chlorobenzyl)-1-cyclopentyl-1,5-dihydro-4H-pyrazolo[3,4-d]pyrimidin-4-one], for which the melting point stood at 159 °C. Also, the negative logarithm of the IC50 (pIC50) at PDE9A [2] was 7.70. The like results for `O=c1[nH]c(Cc2ccc(Cl)c(Cl)c2)nc2c1cnn2C1CCCC1` [Example 4, 6-(3,4-Dichlorobenzyl)-1-cyclopentyl-1,5-dihydro-4H-pyrazolo[3,4-d]pyrimidin-4-one] were, in that order, 198 °C and 7.52.

`S=c1[nH]c(Cc2cccc(Cl)c2)nc2c1cnn2C1CCCC1` [Example 13, 6-(3-Chlorobenzyl)-1-cyclopentyl-1,5-dihydro-4H-pyrazolo[3,4-d]pyrimidine-4-thione] came in with a melting point of 154 °C. Besides, the pIC50 on PDE9A [2] is 7.52.

Turning to `OCCN(CCO)c1nc(N2CCCCC2)c2nc(N(CCO)CCO)nc(N3CCCCC3)c2n1` [dipyridamole], the “inhibition of human PDE9A” value at PDE9A [1] is listed as “no inhibition”. The molecule `CCC(CC)n1ncc2c(=O)[nH]c(Cc3cccc(Cl)c3)nc21` [Example 7, 6-(3-Chlorobenzyl)-1-(1-ethylpropyl)-1,5-dihydro-4H-pyrazolo[3,4-d]pyrimidin-4-one] registered a melting point of 138 °C. `CCC(CC)n1ncc2c(=O)[nH]c(Cc3cc(Cl)ccc3Cl)nc21` [Example 9, 6-(2,5-Dichlorobenzyl)-1-(1-ethylpropyl)-1,5-dihydro-4H-pyrazolo[3,4-d]pyrimidin-4-one] came in with a melting point of 134 °C.
